Data reported in patent EP0013786A1, “Imidazole derivatives, pharmaceutical compositions containing them and their preparation” (SYNTEX (U.S.A.) INC., priority 1979, dated 1980).

Columns and labels:
[1] = system: male Hilltop ICR-derived mice; experiment: Maximal electroshock test in mice; assay type: in vivo; conditions: Mus musculus, ip, 0.25 h; dosed intraperitoneally in saline 15 minutes prior to transcorneal maximal electroshock (50 milliamps, 0.2 seconds); antagonism of tonic extension; read-out: ED50 (95% confidence limits)
Method: This test was performed in the standard manner, essentially as described by Swinyard et al., J. Pharm. Exp. Ther., Vol. 106, pp. 319-330 (1952). Groups of 8-10 male Hilltop ICR-derived mice weighing 20-30 grams were dosed intraperitoneally with a solution or suspension of drug in saline 15 minutes prior to a transcorneal maximal electroshock (50 milli- amps, 0.2 seconds). […] An active compound was capable of antagonizing the occurrence of the tonic extension which occurred immediately after the electroshock.

[2] = Acute oral toxicity in mice; conditions: mouse, in vivo; single oral dose by stomach tube, aqueous carboxymethyl cellulose vehicle, observed for three weeks
Method: The following example illustrates acute oral toxicity of a representative compound.
Protocol: The test compound, l-[2-(2-naphthyl)-2-(methoxy)ethyl'imidazole hydrochloride, is suspended in an aqueous carboxymethyl cellulose suspending vehicle. Concentrations are adjusted so that doses can be given in volumes of 10 ml./kg. body weight. Groups of mice comprising six Swiss-Webster male mice in each group are used. A single oral dose, by stomach tube, of a final dosage of test compound is administered to the mice in each group. Each group receives a different dosage, one group serving as a control. After administration the mice are observed for a three week period.

Structure (SMILES) | ED50 [1] [mg/kg] | LD50 at 504 h [2] [mg/kg]
c1ccc(OC(Cn2ccnc2)c2ccc3ccccc3c2)cc1 (stereo not drawn) [1-[2-(2-naphthyl)-2-(phenoxy)ethyl]imidazole] | 15.1 | 
CCOC(Cn1ccnc1)c1ccc2ccccc2c1 (stereo not drawn) [1-[2-(2-naphthyl)-2-(ethoxy)ethyl]imidazole] | 11.4 | 
Cl.Clc1ccc(OC(Cn2ccnc2)c2ccc3ccccc3c2)cc1 (stereo not drawn) [1[2-(2-naphthyl)-2-(4-chlorophenoxy)ethyl]imidazole hydrochloride] | 46.3 | 
CSC(Cn1ccnc1)c1ccc2ccccc2c1 (stereo not drawn) [1-[2-(2-naphthyl)-2-(methylthio)ethyl]imidazole] | 37.1 | 
COC(Cn1ccnc1)c1ccc2ccccc2c1.Cl (stereo not drawn) [1-[2-(2-naphthyl)-2-(methoxy)ethyl]imidazole hydrochloride] | 10.4 | ~100
COC(Cn1ccnc1)c1cccc2ccccc12 (stereo not drawn) [1-[2-(1-naphthyl)-2-(methoxy)ethyl]imidazole] | 19.4 | 
Cc1ccccc1OC(Cn1ccnc1)c1ccc2ccccc2c1 (stereo not drawn) [1-[2-(2-naphthyl)-2-(2-methylphenoxy)ethyl]imidazole] | 32.6 | 
CCCCOC(Cn1ccnc1)c1cccc2ccccc12 (stereo not drawn) [1-[2-(1-naphthyl)-2-(n-butoxy)ethyl]imidazole] | 16 | 
